US5939403A, “Keratan sulfate oligosaccharide fraction and pharmaceutical containing the same” (Seikagaku Corporation, priority 1994, dated 1999)
Where a name gives a salt, the structure may show the parent alone.

Tests used:
MRL-lpr/lpr mice = experiment: Repeated intramuscular administration for 56 days in MRL mice (lymph node weight); type: in vivo
Procedure: The effect of the keratan sulfate oligosaccharide was examined on MRL mice which are autoimmune disease model mice.
The PBS solution of the purified keratan sulfate disaccharide (III) which was prepared in Example 1 described above at a dose of 2.5 mg/kg, 5 mg/kg, or 10 mg/kg weight (hereinafter referred to as the 2.5 mg/kg administered group, the 5 mg/kg administered group, and the 10 mg/kg administered group, respectively), and PBS as the control (hereinafter sometimes referred to as the control group) was intramuscularly injected, respectively, to the femoral region of MRL-lpr/lpr mice seven times a week for eight weeks. After that, the mice were subjected to anatomization, and the weight of mesenteric lymph nodes and submandibular lymph nodes were determined to obtain the average weight, respectively. The results concerning mesenteric lymph nodes and submandibular lymph nodes are shown in FIG. 15 and FIG. 16 with the standard errors, respectively. In each group, seven mice were used.

papain-induced arthritis = experiment: Papain-induced bilateral arthritis model, intra-articular administration (volume of synovial fluid); type: in vivo, Japanese white rabbits (female); conditions: for Volume of Synovial Fluid: 7 days, n = 8, p < 0.05, control 729, normal 437
Procedure: The anti-inflammatory effect of the keratan sulfate oligosaccharide with rabbits of the papain-induced arthritis model was examined using the volume of synovial fluid as an indication.
Into the articular cavity of both knee joint of Japanese white rabbits (female) of 3 kg weight, 150 μl of the saline solution of papain (1%) was injected to prepare the arthritis model. One day after injecting papain, 150 μl of the PBS solution of the purified keratan sulfate tetrasaccharide (I) (1% solution; 1.5 mg/joint) which was prepared in Example 1 was injected into the articular cavity of the left joint (hereinafter referred to as "the keratan sulfate tetrasaccharide (I) administered foot"), and 150 μl of PBS was injected into that of the right joint (hereinafter referred to as "the keratan sulfate tetrasaccharide (I) unadministered foot"). Hereinafter the rabbits subjected to administration of the keratan sulfate tetrasaccharide (I) are referred to as "the administered group". And the rabbits subjected to the papain injection only (hereinafter referred to as the control group) and the normal rabbits not subjected to the papain injection (hereinafter referred to as the normal group) were also examined in the same manner hereinafter.
Seven days after the injection, the blood was drawn from the auricular artery, and plasma containing heparin was separated. After drawing the blood, the rabbits were anatomized and the both knee joint were separated. The articular cavity was washed with 2 ml of saline three times to recover the synovial fluid. The calcium concentrations in the plasma and the recovered synovial fluid were determined, and the volume of synovial fluid was calculated from the following formula.
Volume of Synovial Fluid (ul/articulation)=Amount of Calcium in Recovered
Synovial Fluid (μg/articulation)/Concentration of Calcium in Plasma
In the table, "n" represents the number of rabbits in each group used in the experiment.

| Compound | weight increase in mesenteric lymph nodes (FIG. 15) (MRL-lpr/lpr mice; 2.5 mg/kg i.m.) | weight increase in mesenteric lymph nodes and submandibular lymph nodes (FIG. 15, FIG. 16) (MRL-lpr/lpr mice; 10 mg/kg i.m.) | Volume of Synovial Fluid (papain-induced arthritis; Administered Foot, 1.5 mg/joint intra-articular, SD 147) [µL] | Volume of Synovial Fluid (papain-induced arthritis; Unadministered Foot, 1.5 mg in other joint, SD 130) [µL] | volume of synovial fluid (result in words) (papain-induced arthritis; intra-articular, bilateral model) |
| --- | --- | --- | --- | --- | --- |
| CC(=O)N[C@H]1C(O)O[C@H](COS(=O)(=O)O)[C@@H](O[C@@H]2O[C@H](COS(=O)(=O)O)[C@H](O)[C@H](O)[C@H]2O)[C@@H]1O (stereo partly drawn) [keratan sulfate disaccharide (III), Gal(6S)β1-4GlcNAc(6S)] | a suppressive effect on the weight increase in mesenteric lymph nodes was observed | that in mesenteric lymph nodes and submandibular lymph nodes were observed | – | – | – |
| CC(=O)N[C@H]1[C@H](O[C@H]2[C@@H](O)[C@@H](COS(=O)(=O)O)O[C@@H](O[C@H]3[C@H](O)[C@@H](NC(C)=O)C(O)O[C@@H]3COS(=O)(=O)O)[C@@H]2O)O[C@H](COS(=O)(=O)O)[C@@H](O[C@@H]2O[C@H](COS(=O)(=O)O)[C@H](O)[C@H](O)[C@H]2O)[C@@H]1O (stereo partly drawn) [keratan sulfate tetrasaccharide (I), Gal(6S)β1-4GlcNAc(6S)β1-3Gal(6S)β1-4GlcNAc(6S)] | – | – | 530 | 537 | significantly less than that in the control group |
